# US11571418B2, “Platinum compounds that inhibit constitutive STAT3 signaling and induce cell cycle arrest and apoptosis of malignant cells” (H. LEE MOFFITT CANCER CENTER AND RESEARCH INSTITUTE, INC., priority 2011, dated 2023)
# Experiments:
# Cyclin D1 = Cyclin D1 detection, in situ and Western blot; assay type: cell-based, human; details: MDA-MB-435, 48 h
# Protocol: FIGS. 8A and 8B. Inhibition of Cyclin D1 and Bcl-xL induction by PLATINUM-401. Viral Src-transformed fibroblasts (NIH3T3/v-Src) and human breast cancer cell line MDA-MB-435 that contain constitutively-activated Stat3 were treated with or without platinum complex for 48 h. Cells were processed for immunohistochemistry, or cell lysates were prepared from cells and subjected to 5% PAGE and Western blot analysis, as indicated in “Materials and Methods.” (FIG. 8A) Detection of Cyclin D1; (FIG. 8B) Detection of Bcl-xL. Positions of Cyclin D1 and Bcl-xL proteins are shown. Beta-actin levels are shown for normalizing for equal total protein. Data are representative of 3 independent determinations.
# Western blot—Whole-cell lysates were prepared in boiling sodium dodecyl sulfate (SDS) sample-loading buffer to extract total proteins from the cytoplasm and nucleus. Equivalent amounts of total cellular protein were electrophoresed on an SDS-10% polyacrylamide gel and transferred onto nitrocellulose membranes. Probing of nitrocellulose membranes with primary antibodies and detection of horseradish peroxidase-conjugated secondary antibodies by enhanced chemiluminescence (Amersham, Piscataway, N.J.) were performed as previously described (Garcia et al., 2001; Turkson et al., 2004b; Zhang et al., 2000). […]
# [1] = system: Stat3-dependent firefly luciferase reporter pLucTKS3; assay: Stat3-dependent luciferase reporter assay; assay type: cell-based, mouse; details: stable NIH3T3/v-Src/pLucTKS3, 48 h
# Protocol: FIGS. 3A-3D. Inhibition of Stat3-mediated gene expression by PLATINUM-401. (FIG. 3A) and (FIG. 3B) v-Src-transformed mouse fibroblasts that stably express Stat3-dependent (NIH3T3/v-Src/pLucTKS3) and Stat3-independent (NIH3T3/v-Src/pRLSRE) luciferase reporters or β-galactosidase (β-gal), as well as normal mouse fibroblast (NIH3T3) transiently transfected with pLucTKS3, pGL2-VEGF-Luc, NFkB-Luc or pLucSRE together with or without v-Src were treated with or without PLATINUM-401 for 48 h. Cytosolic extracts were then prepared from cells for luciferase and […] activities measurements. […]
# Cytosolic extract preparation and luciferase assays—Cytosolic extract preparation from fibroblasts and luciferase assays were previously described (Turkson et al., 1998; Turkson et al., 1999). […] Cells were resuspended in 0.4 ml of low-salt HEPES buffer (10 mM HEPES [pH 7.8], 10 mM KCl, 0.1 mM EGTA, 0.1 mM EDTA, 1 mM phenylmethylsulfonyl fluoride (PMSF), and 1 mM dithiothreitol (DTT)) for 15 min, lysed by the addition of 20 μl of 10% Nonidet P-40 (NP-40), and centrifuged (10,000×g, 30 s, 4° C.) to obtain the cytosolic supernatant, which was used for luciferase assays (Promega) measured with a luminometer. […]
# To further investigate the activities of PLATINUM-401, the inventors treated malignant cells and measured effects on Stat3 signaling. […]
smiles,measurement,setting,value
CC(O)CN1CCN(CC(C)O)CC1 (centres unmarked) [PLATINUM-401],Cyclin D1 level,Cyclin D1,significantly diminished
same,induction of Stat3-dependent reporter,[1],strongly suppresses
